From patent US20060205788A1, “Compounds having activity at 5ht2c receptor and uses thereof” (priority 2003, published 2006)

- melting point: 98 to 99 °C
Compound: COc1ccc(C2=CCN(c3ccc(Cl)c(Cl)c3)C2=O)cc1OCCN1CCCCC1
